≈ marks a conversion by molar mass, not a printed value. Where a SMILES comes first, the peptide text is derived from it.
Experiments:
[1] = Therapeutic index, ratio of MHC for human RBC to geometric mean of peptide MIC for Streptococcus agalactiae H92; assay type: toxicity; settings: human red blood cells (RBC), read-out: TI
[2] = Therapeutic index, ratio of MHC for human RBC to geometric mean of peptide MIC for Staphylococcus epidermidis ATCC 12228; assay type: toxicity; settings: human red blood cells (RBC), read-out: TI
[3] = Therapeutic index, ratio of MHC for human RBC to geometric mean of peptide MIC for methicillin-resistant Staphylococcus aureus 43300; assay type: toxicity; settings: human red blood cells (RBC), read-out: TI
[4] = Therapeutic index, ratio of MHC for human RBC to geometric mean of peptide MIC for Enterococcus faecalis ATCC 29212; assay type: toxicity; settings: human red blood cells (RBC), read-out: TI
[5] = Therapeutic index, ratio of MHC for human RBC to geometric mean of peptide MIC for Staphylococcus aureus ATCC 29213; assay type: toxicity; settings: human red blood cells (RBC), read-out: TI
[6] = Therapeutic index, ratio of MHC for human RBC to geometric mean of peptide MIC for Staphylococcus aureus 11011; assay type: toxicity; settings: human red blood cells (RBC), read-out: TI
[7] = Therapeutic index, ratio of MHC for human RBC to geometric mean of peptide MIC for Salmonella pullorum 7913; assay type: toxicity; settings: human red blood cells (RBC), read-out: TI
[8] = Therapeutic index, ratio of MHC for human RBC to geometric mean of peptide MIC for Salmonella typhimurium 7731; assay type: toxicity; settings: human red blood cells (RBC), read-out: TI
[9] = Therapeutic index, ratio of MHC for human RBC to geometric mean of peptide MIC for Salmonella choleraesuis 503; assay type: toxicity; settings: human red blood cells (RBC), read-out: TI
[10] = Therapeutic index, ratio of MHC for human RBC to geometric mean of peptide MIC for Escherichia coli UB1005; assay type: toxicity; settings: human red blood cells (RBC), read-out: TI
[11] = Therapeutic index, ratio of MHC for human RBC to geometric mean of peptide MIC for Salmonella typhimurium 14028; assay type: toxicity; settings: human red blood cells (RBC), read-out: TI
[12] = Therapeutic index, ratio of MHC for human RBC to geometric mean of peptide MIC for Escherichia coli ATCC 25922; assay type: toxicity; settings: human red blood cells (RBC), read-out: TI
[13] = test system: Staphylococcus aureus; test: Antibacterial activity against Staphylococcus aureus ATCC 29213 after 18 to 24 hrs by CLSI-based broth microdilution method; assay type: functional; settings: time hrs 18-24
[14] = test system: Staphylococcus aureus; test: Antibacterial activity against Staphylococcus aureus 11011 after 18 to 24 hrs by CLSI-based broth microdilution method; assay type: functional; settings: time hrs 18-24
[15] = test system: Escherichia coli; test: Antibacterial activity against Escherichia coli ATCC 25922 after 18 to 24 hrs by CLSI-based broth microdilution method; assay type: functional; settings: time hrs 18-24
[16] = test system: Escherichia coli; test: Antibacterial activity against Escherichia coli UB1005 after 18 to 24 hrs by CLSI-based broth microdilution method; assay type: functional; settings: time hrs 18-24
[17] = test system: Salmonella typhimurium; test: Antibacterial activity against Salmonella typhimurium 14028 after 18 to 24 hrs by CLSI-based broth microdilution method; assay type: functional, Salmonella enterica subsp. enterica serovar Typhimurium; settings: Salmonella enterica, time hrs 18-24
[18] = test system: Salmonella typhimurium; test: Antibacterial activity against Salmonella typhimurium 7731 after 18 to 24 hrs by CLSI-based broth microdilution method; assay type: functional, Salmonella enterica subsp. enterica serovar Typhimurium; settings: Salmonella enterica, time hrs 18-24
[19] = Antibacterial activity against Salmonella pullorum 7913 after 18 to 24 hrs by CLSI-based broth microdilution method; assay type: functional, Salmonella enterica subsp. enterica serovar Pullorum; settings: Salmonella enterica, time hrs 18-24
[20] = test system: Salmonella enterica; test: Antibacterial activity against Salmonella choleraesuis 503 after 18 to 24 hrs by CLSI-based broth microdilution method; assay type: functional; settings: time hrs 18-24
[21] = test system: Staphylococcus epidermidis; test: Antibacterial activity against Staphylococcus epidermidis ATCC 12228 after 18 to 24 hrs by CLSI-based broth microdilution method; assay type: functional; settings: time hrs 18-24
[22] = test system: Enterococcus faecalis; test: Antibacterial activity against Enterococcus faecalis ATCC 29212 after 18 to 24 hrs by CLSI-based broth microdilution method; assay type: functional; settings: time hrs 18-24
[23] = test system: Staphylococcus aureus; test: Antibacterial activity against methicillin-resistant Staphylococcus aureus 43300 after 18 to 24 hrs by CLSI-based broth microdilution method; assay type: functional; settings: time hrs 18-24
[24] = test system: Streptococcus agalactiae; test: Antibacterial activity against Streptococcus agalactiae H92 after 18 to 24 hrs by CLSI-based broth microdilution method; assay type: functional; settings: time hrs 18-24
[25] = test system: Erythrocyte; test: Hemolytic activity in human RBC assessed as hemolysis; assay type: ADME, cell-based
[26] = Hemolytic activity in human RBC assessed as hemolysis at 1 to 128 uM relative to control; assay type: ADME, cell-based, Erythrocyte; settings: human red blood cells (RBC), dose 1-128 µM, read-out: Activity
[27] = Cytotoxicity against mouse RAW264.7 cells assessed as cell viability at 128 uM by MTT assay relative to control; assay type: cell-based; settings: read-out: Activity
[28] = Cytotoxicity against HEK-293T cells assessed as cell viability at 128 uM by MTT assay relative to control; assay type: cell-based; settings: human, read-out: Activity

SMILES	selectivity ratio [1]	selectivity ratio [2]	selectivity ratio [3]	selectivity ratio [4]	selectivity ratio [5]	selectivity ratio [6]	selectivity ratio [7]	selectivity ratio [8]	selectivity ratio [9]	selectivity ratio [10]	selectivity ratio [11]	selectivity ratio [12]	MIC [13]	MIC [14]	MIC [15]	MIC [16]	MIC [17]	MIC [18]	MIC [19]	MIC [20]	also measured
CC(C)[C@H](N)C(=O)N[C@@H](CS)C(=O)N[C@@H](CCCNC(=N)N)C(=O)N[C@@H](CCCCN)C(=O)N1CCC[C@H]1C(=O)N[C@H](C(=O)N[C@H](C(=O)N[C@@H](CS)C(=O)N[C@@H](CCCNC(=N)N)C(=O)N[C@@H](CCCCN)C(=O)N1CCC[C@H]1C(=O)N[C@H](C(=O)N[C@H](C(=O)N[C@@H](CS)C(=O)N[C@@H](CCCNC(=N)N)C(=O)N[C@@H](CCCCN)C(=O)N1CCC[C@H]1C(=O)N[C@H](C(N)=O)C(C)C)C(C)C)C(C)C)C(C)C)C(C)C (H-VCRKPVVCRKPVVCRKPV-NH2)	2	2	2	2	2	2	6.35	6.35	6.35	6.35	6.35	6.35	> 64 µM	> 64 µM	8 µM (≈ 16.5 µg/mL)	16 µM (≈ 33.1 µg/mL)	8 µM (≈ 16.5 µg/mL)	16 µM (≈ 33.1 µg/mL)	> 64 µM	> 64 µM	MIC [21]: > 64 µM; MIC [22]: > 64 µM; MIC [23]: > 64 µM; MIC [24]: > 64 µM; MHC [25]: > 128 µM; hemolysis at up to 128 µM [26]: < 5%; viability at 128 µM [27]: > 90%; viability at 128 µM [28]: > 90%
CC(C)[C@H](N)C(=O)N[C@@H](CS)C(=O)N[C@@H](CCCNC(=N)N)C(=O)N[C@@H](CCCCN)C(=O)N1CCC[C@H]1C(=O)N[C@H](C(=O)N[C@H](C(=O)N[C@@H](CS)C(=O)N[C@@H](CCCNC(=N)N)C(=O)N[C@@H](CCCCN)C(=O)N1CCC[C@H]1C(=O)N[C@H](C(=O)N[C@H](C(=O)N[C@@H](CS)C(=O)N[C@@H](CCCNC(=N)N)C(=O)N[C@@H](CCCCN)C(=O)N1CCC[C@H]1C(=O)N[C@H](C(=O)N[C@H](C(=O)N[C@@H](CS)C(=O)N[C@@H](CCCNC(=N)N)C(=O)N[C@@H](CCCCN)C(=O)N1CCC[C@H]1C(=O)N[C@H](C(N)=O)C(C)C)C(C)C)C(C)C)C(C)C)C(C)C)C(C)C)C(C)C (H-VCRKPVVCRKPVVCRKPVVCRKPV-NH2)	2	2	2	2	2	2	8	8	8	8	8	8	> 64 µM	> 64 µM	8 µM (≈ 22 µg/mL)	8 µM (≈ 22 µg/mL)	8 µM (≈ 22 µg/mL)	8 µM (≈ 22 µg/mL)	64 µM (≈ 176 µg/mL)	> 64 µM	MIC [21]: > 64 µM; MIC [22]: > 64 µM; MIC [23]: > 64 µM; MIC [24]: > 64 µM; MHC [25]: > 128 µM; hemolysis at up to 128 µM [26]: < 5%; viability at 128 µM [27]: > 90%; viability at 128 µM [28]: > 90%
CC(C)[C@H](N)C(=O)N[C@@H](CS)C(=O)N[C@@H](CCCNC(=N)N)C(=O)N[C@@H](CCCCN)C(=O)N1CCC[C@H]1C(=O)N[C@H](C(=O)N[C@H](C(=O)N[C@@H](CS)C(=O)N[C@@H](CCCNC(=N)N)C(=O)N[C@@H](CCCCN)C(=O)N1CCC[C@H]1C(=O)N[C@H](C(=O)N[C@H](C(=O)N[C@@H](CS)C(=O)N[C@@H](CCCNC(=N)N)C(=O)N[C@@H](CCCCN)C(=O)N1CCC[C@H]1C(=O)N[C@H](C(=O)N[C@H](C(=O)N[C@@H](CS)C(=O)N[C@@H](CCCNC(=N)N)C(=O)N[C@@H](CCCCN)C(=O)N1CCC[C@H]1C(=O)N[C@H](C(=O)N[C@H](C(=O)N[C@@H](CS)C(=O)N[C@@H](CCCNC(=N)N)C(=O)N[C@@H](CCCCN)C(=O)N1CCC[C@H]1C(=O)N[C@H](C(N)=O)C(C)C)C(C)C)C(C)C)C(C)C)C(C)C)C(C)C)C(C)C)C(C)C)C(C)C (H-VCRKPVVCRKPVVCRKPVVCRKPVVCRKPV-NH2)	2	2	2	2	2	2	16	16	16	16	16	16	> 64 µM	> 64 µM	4 µM (≈ 13.7 µg/mL)	4 µM (≈ 13.7 µg/mL)	4 µM (≈ 13.7 µg/mL)	4 µM (≈ 13.7 µg/mL)	16 µM (≈ 54.9 µg/mL)	> 64 µM	MIC [21]: > 64 µM; MIC [22]: > 64 µM; MIC [23]: > 64 µM; MIC [24]: > 64 µM; MHC [25]: > 128 µM; hemolysis at up to 128 µM [26]: < 5%; viability at 128 µM [27]: > 90%; viability at 128 µM [28]: > 90%

— ChEMBL document CHEMBL4665709, “Rational Avoidance of Protease Cleavage Sites and Symmetrical End-Tagging Significantly Enhances the Stability and Therapeutic Potential of Antimicrobial Peptides” (J Med Chem, 2020)
